In PubChem BioAssay (NCI) one finds TGI data, which are given here for 15 molecules.

Assay in all cases: inhibition of tumour cell growth, NCI panel, 48 h
Test [1] deals with OVCAR-8 ovarian.
Test [2] has as its system SNB-19 CNS.
Test [3] concerns K-562 leukemia.
Test [4] relates to TK-10 renal.
The test system of test [5] is SK-MEL-2 melanoma.
Test [6] concerns SK-MEL-5 melanoma.
Test [7] deals with KM12 colon.
Test [8] has as its system HS 578T breast.
For test [9], the system named is UACC-257 melanoma.
For test [10], the system named is RPMI-8226 leukemia.
Test [11] has as its system EKVX NSCLC.
In test [12] the test system is ACHN renal.
For test [13], the system named is PC-3 prostate.
The subject of test [14] is MDA-MB-435.
The test system of test [15] is SF-295 CNS.

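Exposure lasted 48 hours, with cells grown in 96-well plates and compounds tested at five concentrations. TGI marks complete inhibition of growth.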 Where a SMILES comes first, the peptide text is derived from it. The star is where a group is joined. Cbz = O=C(OCc1ccccc1)*; Boc = CC(C)(C)OC(=O)*; OSu = O=C1CCC(=O)N1O*; Bn = c1ccc(C*)cc1 Some results are limits rather than exact numbers.

As to `CC(C)(C)OC(=O)NC(Cc1ccc(OCc2ccccc2)cc1)C(=O)NC(CCCCNC(=O)OCc1ccccc1)C(=O)ON1C(=O)CCC1=O` (centres undefined) (Boc-Tyr(Bn)-Lys(Cbz)-OSu; configuration not given here), the TGI in test [1] was 51.9 µM; in [2], 35.3 µM; in test [3], 73.6 µM; in [4], over 100 µM; in test [5], 33.8 µM; in [6], 48 µM. Moreover, the TGI was 65.5 µM in [7]; 67.1 µM in test [8]; over 100 µM in test [9]; 45.3 µM in test [10]; over 100 µM in test [11]; 42.6 µM in test [12]. This molecule gave a TGI in test [13] of 57.7 µM.

Consider `CC(=O)Nc1ccc2[nH]c(-c3cccc(Cl)c3)cc(=O)c2c1`, for which the TGI in test [1] is over 100 µM; in test [14], 6.93 µM; in [2], over 100 µM; in test [4] it was over 100 µM; in test [6], over 100 µM; in test [7], over 100 µM. Moreover, the TGI in [8], in [9], in test [10], in test [11], in test [12] and in test [13] was over 100 µM in each case.

On to `Cc1cc(S(=O)(=O)Nc2cc(N)[nH]n2)c(SCc2nc(N)nc(N(C)C)n2)cc1Cl`, for which the TGI in test [1], in test [2], in test [3], in [15], in [4] and in test [5] was over 10 µM each time. Besides, the TGI in test [6], in test [7], in [8], in test [9], in test [10] and in [11] was over 10 µM in each case. Also, the TGI in test [12] and in [13] was over 10 µM in each case.

As to `CN(N)c1cc(=O)[nH]c(=O)[nH]1`, the TGI in [1], in test [2], in test [3], in test [15], in [4] and in test [6] was over 100 µM in each case. Further, the TGI in test [7], in test [8], in test [9], in test [10], in test [11] and in [12] was over 100 µM throughout. This molecule yielded a TGI in [13] of over 100 µM.

With `CC1=CC[C@@]2(CO)[C@@H]([C@@H]1C)[C@H]1CC[C@@H]3[C@@]4(C)CC[C@H](O)C(C)(C)[C@@H]4CC[C@@]3(C)[C@]1(C)C[C@@H]2O`, the TGI in test [1] is 55 µM; in [14], over 100 µM; in [2] it was over 100 µM; in test [3], over 100 µM; in test [15], 58.4 µM; in test [4] it was 44.4 µM. Also, the TGI in [6] was 42.1 µM; in [7], over 100 µM; in [8] it was over 100 µM; in [9], over 100 µM; in test [11], over 100 µM; in test [12], 91.7 µM. For the same molecule, in test [13], the TGI is over 100 µM.

Turning to `c1ccc([P+](Cc2ccccc2C[P+](c2ccccc2)(c2ccccc2)c2ccccc2)(c2ccccc2)c2ccccc2)cc1`, the TGI in [1], in test [14], in test [2], in [3], in test [15] and in test [4] was over 100 µM throughout. The TGI in test [5], in test [6], in test [7], in test [8], in [9] and in [10] was over 100 µM each time. The TGI in test [12] and in test [13] was over 100 µM throughout.

For the molecule `CCc1n[nH]c(=O)n1/N=C/c1ccc(C)cc1`, the TGI in test [1], in test [14], in test [2], in [3], in [15] and in test [4] was over 100 µM throughout. Besides, the TGI is over 100 µM in test [5]; over 100 µM in [6]; over 100 µM in test [7]; 44.3 µM in test [8]; over 100 µM in [9]; over 100 µM in test [10]. For the same molecule, the TGI in test [11] and in test [12] was over 100 µM in each case.

Regarding `COc1cc(C2C(C#N)=C(N)OC3=C2CCS(=O)(=O)c2ccc(C)cc23)cc(OC)c1OC` (centres undefined), the TGI in test [1], in test [14], in [2], in [3], in test [4] and in test [5] was over 100 µM throughout. Besides, the TGI in test [6], in [7], in [8], in [9], in test [10] and in [12] was over 100 µM throughout. The TGI in test [13] was over 100 µM.

`COc1cc(OC)c2nc(C)c3c(c2c1)NCC3`: the TGI in [1] stood at 19 µM; in test [14] it was 21.6 µM; in test [2] it was 40.7 µM; in test [3] it was 27.7 µM; in test [15], 28.9 µM; in test [4], 35.7 µM. Moreover, the TGI was found to be 21.4 µM in test [5]; 21.6 µM in [6]; 15.1 µM in test [8]; 15.9 µM in [9]; 26.2 µM in test [12]; 20 µM in [13].

Take `CO/N=C(\C(=O)N(C)n1cnnc1)c1csc(NC(c2ccccc2)(c2ccccc2)c2ccccc2)n1`: the TGI in test [1], in test [2], in test [3], in test [15], in test [4] and in test [5] was over 10 µM each time. Moreover, the TGI in test [6], in [7], in test [8], in [9], in test [10] and in test [11] was over 10 µM each time. The TGI in [12] and in test [13] was over 10 µM each time.

Take `C[C@]12CC/C(=N\O)C=C1CC[C@@H]1[C@@H]2CC[C@]2(C)C(=N/O)/C(=C/c3ccc([N+](=O)[O-])cc3)C[C@@H]12`: the TGI in test [14] was 19 µM; in test [2] it was over 100 µM; in test [3], 19.5 µM; in [15], 8.96 µM; in test [4], 91 µM; in test [5] it was 17.1 µM. Moreover, the TGI was 16.2 µM in [6]; 23.6 µM in test [7]; 18.3 µM in test [8]; 33.9 µM in test [9]; 7.61 µM in test [10]; over 100 µM in test [12]. The TGI in [13] stood at 34.5 µM.

In the case of `Cc1ccc(S(=O)(=O)N2CCSCCN(S(=O)(=O)c3ccc(C)cc3)CCN(S(=O)(=O)c3ccc(C)cc3)CC2)cc1`, the TGI in test [1] was over 100 µM; in test [14], over 100 µM; in [2] it was over 100 µM; in test [3] it was over 100 µM; in test [15] it was over 100 µM; in test [5], 79.9 µM. Further, the TGI in [6], in [8], in test [10] and in [11] was over 100 µM each time.

Turning to `COc1ccc2cc(C(=O)O)ccc2c1OC`, the TGI in test [1], in test [14], in test [2], in test [3], in test [15] and in [5] was over 100 µM each time. Moreover, the TGI in test [6], in test [7], in test [8], in test [9], in test [12] and in test [13] was over 100 µM in each case.

As for `CC1=C/C(=N\O)C(C(O)(C(F)(F)F)C(F)(F)F)C(C)(C)C1` (centres undefined), the TGI in test [1], in [14], in test [2], in [3], in test [15] and in [4] was over 10 µM each time. Besides, the TGI in [6], in [7], in test [8], in test [9], in test [11] and in [12] was over 10 µM in each case. This molecule also gave a TGI in test [13] of over 10 µM.

For the molecule `c1ccc(-n2nc3ccc4nonc4c3n2)cc1`, the TGI in [1], in test [14], in [2], in [3], in [15] and in test [4] was over 100 µM throughout. Moreover, the TGI in test [5], in test [6], in test [7], in [9], in test [10] and in test [11] was over 100 µM each time. Moreover, the TGI in test [12] and in test [13] was over 100 µM each time.
